Laboratory results taken from US20120190669A1, “OXINDOLE COMPOUNDS” (CYLENE PHARMACEUTICALS, INC., priority 2008, published 2012).

Each compound was assayed against recombinant PIM-1 (Homo sapiens, UniProt P11309) (assay: PIM-1 kinase assay (radiometric, 15 uM ATP, DMSO 4%)). Details: Table 1; % inhibition at the high dose (2 micromolar) in a single screening assay; 15 μM ATP.
Type: biochemical
Procedure: The following procedure was used to assay the PIM-1 kinase activity of compounds of the invention. Other methods for assaying PIM-1 and other PIM kinases, as well as methods to assay for activity against the various kinases in FIG. 1, are known in the art.
(specific activity approx. 500 cpm/pmol), DMSO 4% and test inhibitor compound at the required concentration. The reaction was initiated by the addition of the Magnesium ATP mixture. After 40 min incubation at 23° C., the reactions were quenched by the addition of 100 ul 0.75% Phosphoric acid, and the labeled peptide collected by filtration through a phosphocellulose filter plate. The plate was washed 4 times with 0.075% phosphoric acid (100 ul per well) and then, after the addition of scintillation fluid (20 ul per well), the counts were measured by a scintillation counter.

recombinant PIM-1, sequence (P11309 whole entry): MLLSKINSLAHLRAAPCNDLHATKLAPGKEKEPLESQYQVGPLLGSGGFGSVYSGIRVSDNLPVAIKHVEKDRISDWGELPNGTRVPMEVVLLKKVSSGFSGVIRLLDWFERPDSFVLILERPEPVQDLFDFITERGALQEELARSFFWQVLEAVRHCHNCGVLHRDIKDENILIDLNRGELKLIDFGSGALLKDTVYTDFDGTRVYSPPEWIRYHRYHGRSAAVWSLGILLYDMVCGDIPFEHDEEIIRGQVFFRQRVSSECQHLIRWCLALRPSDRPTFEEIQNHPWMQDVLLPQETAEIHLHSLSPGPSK

SMILES	inhibition at 2 µM [%]
O=C1Nc2ccc(C(=O)NC3CC3)cc2/C1=C\c1ccc(-c2cccc(C(=O)NCCN3CCCC3)c2)o1 [Compound 9]	37.2
CN1CCC(N(C)C(=O)c2ccccc2-c2ccc(/C=C3/C(=O)Nc4ccccc43)o2)C1 (centres unmarked) [Compound 58]	7.15
O=C1Nc2c(F)cccc2/C1=C\c1ccc(-c2ccc(Cl)c(C(=O)NCCN3CCCC3)c2)o1 [Compound 104]	-5.3
CCN(CC)CCNC(=O)c1cccc(-c2coc(/C=C3/C(=O)Nc4ccc(F)cc43)c2)c1 [Compound 94]	11.5
CN1CCCCC1CNC(=O)c1ccccc1-c1ccc(/C=C2/C(=O)Nc3ccc(F)cc32)o1 (centres unmarked) [Compound 66]	4.53
CN(C)C1CCN(C(=O)c2ccccc2-c2ccc(/C=C3/C(=O)Nc4ccc(F)cc43)o2)CC1 [Compound 67]	8.84
O=C1CN(C(=O)c2cccc(-c3ccc(/C=C4/C(=O)Nc5ccccc54)o3)c2)CCN1 [Compound 23]	-14.2
CCN(CC)CCNC(=O)c1ccc(-c2ccc(/C=C3/C(=O)Nc4ccc(F)cc43)o2)cc1 [Compound 80]	94.2
O=C1Nc2ccc(F)cc2/C1=C\c1cc(-c2cccc(C(=O)NCCN3CCCC3)c2)co1 [Compound 88]	9
CN1CCC(N(C)C(=O)c2ccccc2-c2ccc(/C=C3/C(=O)Nc4ccc(F)cc43)o2)C1 (centres unmarked) [Compound 64]	18.2
CN1CCCN(C(=O)c2ccc(-c3ccc(/C=C4/C(=O)Nc5ccccc54)o3)cc2F)CC1 [Compound 160]	-17.1
CCN1CCCC1CNC(=O)c1cccc(-c2ccc(/C=C3/C(=O)Nc4ccccc43)o2)c1 (centres unmarked) [Compound 57]	10.6
CN1C(=O)/C(=C/c2ccc(-c3cccc(C(=O)O)c3)o2)c2ccccc21 [Compound 2]	31.6
O=C1Nc2ccc(C(=O)O)cc2/C1=C\c1ccc(-c2cccc(C(=O)NCCN3CCCC3)c2)o1 [Compound 6]	32.3
CN1CCCCC1CNC(=O)c1cccc(-c2ccc(/C=C3/C(=O)Nc4ccc([N+](=O)[O-])cc43)o2)c1 (centres unmarked) [Compound 53]	23.5
CN1CCCC(NC(=O)c2cc(-c3ccc(/C=C4/C(=O)Nc5ccc(F)cc54)o3)ccc2Cl)C1 (centres unmarked) [Compound 70]	27.6
CN1CCCC(NC(=O)c2cccc(-c3coc(/C=C4/C(=O)Nc5ccc(F)cc54)c3)c2)C1 (centres unmarked) [Compound 89]	6.1
O=C1Nc2c(Cl)cccc2/C1=C\c1ccc(-c2ccc(Cl)c(C(=O)NCCN3CCCC3)c2)o1 [Compound 105]	-16.7
CN1CCC(N(C)C(=O)c2ccc(-c3ccc(/C=C4/C(=O)Nc5ccc(F)cc54)o3)cc2)C1 (centres unmarked) [Compound 83]	54.8
CN1CCCCC1CNC(=O)c1cccc(-c2ccc(/C=C3/C(=O)Nc4c3cccc4C(F)(F)F)o2)c1 (centres unmarked) [Compound 51]	2.32
CN1CCCN(C(=O)c2ccc(-c3ccc(/C=C4/C(=O)Nc5ccccc54)o3)cn2)CC1 [Compound 137]	20.6
O=C1Nc2ccc(F)cc2/C1=C\c1ccc(-c2ccccc2C(=O)NCCN2CCCC2)o1 [Compound 62]	0.28
CN1CCCCC1CNC(=O)c1cccc(-c2ccc(/C=C3/C(=O)Nc4cc(F)ccc43)o2)c1 (centres unmarked) [Compound 40]	33.9
COC(=O)c1ccc(-c2ccc(/C=C3/C(=O)Nc4ccccc43)o2)c(N)c1 [Compound 143]	30.6
CN1CCC(N(C)C(=O)c2ccc(-c3ccc(/C=C4/C(=O)Nc5ccccc54)o3)cn2)C1 (centres unmarked) [Compound 131]	5.08
O=C1Nc2ccccc2/C1=C\c1ccc(-c2ccc(Cl)c(C(=O)NCC3CCCN3)c2)o1 (centres unmarked) [Compound 29]	-33.4
O=C1Nc2ccccc2/C1=C\c1ccc(-c2cc(F)cc(C(=O)NCCN3CCCC3)c2)o1 [Compound 79]	43.3
CN1CCCCC1CNC(=O)c1ccc(-c2ccc(/C=C3/C(=O)Nc4ccccc43)o2)cn1 (centres unmarked) [Compound 133]	7.61

Now from value to compound:

inhibition at 2 µM [%]	SMILES
21	Cc1cnc(CNC(=O)c2cccc(-c3ccc(/C=C4/C(=O)Nc5ccc(Cl)cc54)o3)c2)cn1 [Compound 107]
37	Cn1ccnc1CNC(=O)c1cccc(-c2ccc(/C=C3/C(=O)Nc4ccc(Cl)cc43)o2)c1 [Compound 119]
26.3	O=C1Nc2ccc(Cl)cc2/C1=C\c1ccc(-c2cccc(C(=O)NCc3ccnc(N4CCCC4)c3)c2)o1 [Compound 141]
29.3	O=C1Nc2ccc(Cl)cc2/C1=C\c1ccc(-c2cccc(C(=O)NCCc3ccccn3)c2)o1 [Compound 172]
18.4	O=C1Nc2ccc(Cl)cc2/C1=C\c1ccc(-c2cccc(C(=O)NCCc3ccc(O)cc3)c2)o1 [Compound 179]
-59.6	CON(C)C(=O)c1cccc(-c2ccc(/C=C3/C(=O)Nc4ccc(Cl)cc43)o2)c1 [Compound 176]
19.2	O=C1Nc2ccc(Cl)cc2/C1=C\c1ccc(-c2cccc(C(=O)NCc3ccccn3)c2)o1 [Compound 117]
39.3	CC1CCCN(CCCNC(=O)c2cccc(-c3ccc(/C=C4/C(=O)Nc5ccc(Cl)cc54)o3)c2)C1 (centres unmarked) [Compound 122]
-0.36	CN1CCCCC1CNC(=O)c1cccc(-c2ccc(/C=C3/C(=O)Nc4ccc(C#N)cc43)o2)c1 (centres unmarked) [Compound 46]
23	CN1CCN(C(=O)c2cccc(-c3ccc(/C=C4/C(=O)Nc5ccc(Cl)cc54)o3)c2)CC1 [Compound 114]
-9.22	CN1CCCCC1CNC(=O)c1cccc(-c2ccc(/C=C3/C(=O)Nc4ccc(Cl)cc43)o2)c1 (centres unmarked) [Compound 44]

Same assay, conditions: Table 1; given for compounds with IC50 at or below 2 micromolar; 15 uM ATP; read-out: PIM-1 IC50

SMILES	IC50 [µM]
Nc1cc(C(=O)NCCN2CCCC2)ccc1-c1ccc(/C=C2/C(=O)Nc3ccccc32)o1 [Compound 144]	< 1
Nc1cccc(-c2ccc(/C=C3/C(=O)Nc4ccccc43)o2)c1 [Compound 183]	< 2
CCN(CC)CCNC(=O)c1ccc(-c2ccc(/C=C3/C(=O)Nc4ccc(F)cc43)o2)cc1 [Compound 80]	< 1
CN1CCC(N(C)C(=O)c2ccc(Cl)c(-c3ccc(/C=C4/C(=O)Nc5ccc(F)cc54)o3)c2)C1 (centres unmarked) [Compound 99]	< 1
CCN1CCCC1CNC(=O)c1ccc(Cl)c(-c2ccc(/C=C3/C(=O)Nc4ccc(F)cc43)o2)c1 (centres unmarked) [Compound 100]	< 1
O=C1Nc2ccc(F)cc2/C1=C\c1ccc(-c2cc(C(=O)NCCN3CCCC3)ccc2Cl)o1 [Compound 13]	< 2
CN(C)C1CCN(C(=O)c2ccc(Cl)c(-c3ccc(/C=C4/C(=O)Nc5ccc(F)cc54)o3)c2)CC1 [Compound 103]	< 2
CN1CCCCC1CNC(=O)c1ccc(-c2ccc(/C=C3/C(=O)Nc4ccccc43)o2)cc1 (centres unmarked) [Compound 37]	< 2
C/C(=C1\C(=O)Nc2ccc(Cl)cc21)c1ccc(-c2ccc(C(=O)N3CCCN(C)CC3)cc2)o1 [Compound 195]	< 1
O=C1Nc2ccccc2/C1=C\c1ccc(-c2cc(C(=O)NCCN3CCCC3)ccc2Cl)o1 [Compound 14]	< 2
CN1CCC(N(C)C(=O)c2ccc(-c3ccc(/C=C4/C(=O)Nc5ccc(F)cc54)o3)cc2)C1 (centres unmarked) [Compound 83]	< 1
C/C(=C1\C(=O)Nc2ccccc21)c1ccc(-c2cccc(C(=O)NCCN3CCCC3)c2)o1 [Compound 156]	< 2
O=C1Nc2ccccc2/C1=C\c1ccc(-c2ccc3ccc(NCCN4CCCC4)nc3c2)o1 [Compound 155]	< 1
CN1CCCN(C(=O)c2cncc(-c3ccc(/C=C4/C(=O)Nc5ccc(Cl)cc54)o3)c2)CC1 [Compound 154]	< 1
CN1CCCC(NC(=O)c2ccc(-c3ccc(/C=C4/C(=O)Nc5ccccc54)o3)cc2)C1 (centres unmarked) [Compound 35]	< 1
O=C1Nc2ccccc2/C1=C\c1ccc(-c2ccc(CO)cc2)o1 [Compound 164]	< 2
O=C1Nc2ccccc2/C1=C\c1ccc(-c2cc(F)cc(C(=O)NCCN3CCCC3)c2)o1 [Compound 79]	< 2
CN1CCCN(C(=O)c2ccc(-c3ccc(/C=C4/C(=O)Nc5ccc(Cl)cc54)o3)cc2)CC1 [Compound 196]	< 1
CN1CCCC(NC(=O)c2cncc(-c3ccc(/C=C4/C(=O)Nc5ccc(Cl)cc54)o3)c2)C1 (centres unmarked) [Compound 149]	< 1

Results, then the compound that gave them:

IC50 [µM]	SMILES
< 1	CCN(CC)CCNC(=O)c1cccc(-c2ccc(/C=C3/C(=O)Nc4ccccc43)o2)c1 [Compound 4]
< 1	O=C1Nc2ccc(Cl)cc2/C1=C\c1ccc(-c2cccc(C(=O)NCc3cccnc3)c2)o1 [Compound 116]
< 1	O=C1Nc2ccc(Cl)cc2/C1=C\c1ccc(-c2cccc(C(=O)NCCCn3ccnc3)c2)o1 [Compound 123]
< 1	Cn1cncc1CNC(=O)c1ccc(-c2ccc(/C=C3/C(=O)Nc4ccccc43)o2)cc1 [Compound 36]
< 1	O=C1Nc2ccc(Cl)cc2/C1=C\c1ccc(-c2cccc(C(=O)NCCN(CCO)CCO)c2)o1 [Compound 193]
< 2	O=C1Nc2ccc(F)cc2/C1=C\c1ccc(-c2cccc(C(=O)NCc3ccncc3)c2)o1 [Compound 21]
< 1	Cc1cnc(CNC(=O)c2ccc(-c3ccc(/C=C4/C(=O)Nc5ccc(Cl)cc54)o3)cc2)cn1 [Compound 140]
< 2	O=C1Nc2ccc(F)cc2/C1=C\c1ccc(-c2cccc(C(=O)O)c2)o1 [Compound 10]
< 1	CCN1CCCC1CNC(=O)c1cncc(-c2ccc(/C=C3/C(=O)Nc4ccc(Cl)cc43)o2)c1 (centres unmarked) [Compound 151]
< 1	NC(=O)c1cccc(-c2ccc(/C=C3/C(=O)Nc4ccccc43)o2)c1 [Compound 166]
< 1	Cn1cncc1CNC(=O)c1cccc(-c2ccc(/C=C3/C(=O)Nc4ccc(Cl)cc43)o2)c1 [Compound 110]
< 1	O=C1Nc2ccc(Cl)cc2/C1=C\c1ccc(-c2cccc(C(=O)NCC(O)c3ccncc3)c2)o1 (centres unmarked) [Compound 190]

Same assay, conditions: Table 3; DMSO 4%; read-out: PIM1: IC50 (DMSO 4%)

IC50 [µM]	SMILES
> 1.1	CN1CCCN(C(=O)c2cccc(-c3ccc(/C(=C4/C(=O)Nc5ccc(Cl)cc54)C4CC4)o3)c2)CC1
